Laboratory results reported in ChEMBL document CHEMBL6134860, “Discovery and optimization of a novel carboxamide scaffold with selective antimalarial activity” (Eur J Med Chem, 2025).
pEC50: −log10 of the molar value.

Columns and labels:
Plasmodium falciparum = test: microbe, parasite or virus in culture; assay type: functional, organism-based; details: W2, 72 h; for pEC50: read-out: EC50; for EC50: read-out: pEC50 (converted)
[1] = Cytotoxicity against human HepG2 cells measured after 72 hrs by hoechst 33342 staining based imaging assay; assay type: toxicity, cell-based

Cc1ccc(-n2cc(C(=O)N(C)c3ccc(Cl)cc3)nn2)cc1
pEC50 (Plasmodium falciparum): < 5.00 | EC50 (Plasmodium falciparum): > 10 µM | CC50 at 72 h ([1]; read-out: CC50): > 10 µM | CC50 at 72 h ([1]; read-out: pCC50 (converted)): > 10 µM

CN(C(=O)c1cc(-c2ccc(Cl)cc2)ccn1)c1ccc(Cl)cc1
pEC50 (Plasmodium falciparum): 6.77 | EC50 (Plasmodium falciparum): 0.17 µM

[2H]C([2H])([2H])N(C(=O)c1ncc(-c2ccc(Cl)cc2)o1)c1ccc(Cl)cc1
pEC50 (Plasmodium falciparum): 3.41 | EC50 (Plasmodium falciparum): 0.389 µM

CN(C(=O)c1cnc(-c2ccc(Cl)cc2)o1)c1ccc(Cl)cc1
pEC50 (Plasmodium falciparum): < 5.00 | EC50 (Plasmodium falciparum): > 10 µM | CC50 at 72 h ([1]; read-out: CC50): > 10 µM | CC50 at 72 h ([1]; read-out: pCC50 (converted)): > 10 µM

Cc1ccc(-c2nc(C)c(C(=O)N(C)c3ccc(Cl)cc3)o2)cc1
pEC50 (Plasmodium falciparum): < 5.05 | EC50 (Plasmodium falciparum): > 8.91 µM | CC50 at 72 h ([1]; read-out: CC50): > 10 µM | CC50 at 72 h ([1]; read-out: pCC50 (converted)): > 10 µM

O=C1c2sc(-c3ccc(Cl)cc3)nc2CN1c1ccc(Cl)cc1
pEC50 (Plasmodium falciparum): < 5.00 | EC50 (Plasmodium falciparum): > 10 µM | CC50 at 72 h ([1]; read-out: CC50): > 10 µM | CC50 at 72 h ([1]; read-out: pCC50 (converted)): > 10 µM

COc1ccc(-n2cnc(C(=O)N(C)c3cccc(C)c3)n2)cc1
pEC50 (Plasmodium falciparum): < 5.24 | EC50 (Plasmodium falciparum): > 5.75 µM | CC50 at 72 h ([1]; read-out: CC50): > 10 µM | CC50 at 72 h ([1]; read-out: pCC50 (converted)): > 10 µM

CCc1ccc(-n2cnc(C(=O)N(C)c3cccc(C)c3)n2)cc1
pEC50 (Plasmodium falciparum): < 5.37 | EC50 (Plasmodium falciparum): > 4.27 µM | CC50 at 72 h ([1]; read-out: CC50): > 10 µM | CC50 at 72 h ([1]; read-out: pCC50 (converted)): > 10 µM

Cc1ccc(-c2ncc(C(=O)N(C)c3ccc(Cl)cc3)[nH]2)cc1
EC50 (Plasmodium falciparum): 3.39 µM | CC50 at 72 h ([1]; read-out: CC50): > 10 µM | CC50 at 72 h ([1]; read-out: pCC50 (converted)): > 10 µM

CN(C(=O)c1ncn(-c2ccc(Cl)cc2)n1)c1ccc(C(F)(F)F)cc1
EC50 (Plasmodium falciparum): 3.8 µM | CC50 at 72 h ([1]; read-out: CC50): > 6.93 µM | CC50 at 72 h ([1]; read-out: pCC50 (converted)): > 6.92 µM

Cc1ccc(-c2cnc(C(=O)N(C)c3ccc(Cl)cc3)o2)cc1
EC50 (Plasmodium falciparum): 0.676 µM | CC50 at 72 h ([1]; read-out: CC50): > 10 µM | CC50 at 72 h ([1]; read-out: pCC50 (converted)): > 10 µM

Cc1ccc(C(=O)Nc2ncn(-c3ccc(Cl)cc3)n2)cc1
pEC50 (Plasmodium falciparum): < 5.00 | EC50 (Plasmodium falciparum): > 10 µM | CC50 at 72 h ([1]; read-out: CC50): > 10 µM | CC50 at 72 h ([1]; read-out: pCC50 (converted)): > 10 µM

CCc1ccc(-n2cnc(C(=O)N(C)c3ccc(C)cc3)n2)cc1
EC50 (Plasmodium falciparum): 0.575 µM | CC50 at 72 h ([1]; read-out: CC50): > 10 µM | CC50 at 72 h ([1]; read-out: pCC50 (converted)): > 10 µM

CN(C(=O)c1ncn(-c2ccc(Cl)cc2)n1)c1ccc(Cl)cc1
EC50 (Plasmodium falciparum): 0.525 µM | CC50 at 72 h ([1]; read-out: CC50): > 10 µM | CC50 at 72 h ([1]; read-out: pCC50 (converted)): > 10 µM

Cc1ccc(-c2ccnc(C(=O)N(C)c3ccc(Cl)cc3)c2)cc1
EC50 (Plasmodium falciparum): 0.49 µM | CC50 at 72 h ([1]; read-out: CC50): > 10 µM | CC50 at 72 h ([1]; read-out: pCC50 (converted)): > 10 µM

O=C(c1ccc(Cl)cc1)c1cc(-c2ccc(Cl)cc2)ccn1
pEC50 (Plasmodium falciparum): < 2.00 | EC50 (Plasmodium falciparum): > 10 µM | CC50 at 72 h ([1]; read-out: CC50): > 10 µM | CC50 at 72 h ([1]; read-out: pCC50 (converted)): > 10 µM

CCc1ccc(-n2cnc(C(=O)N(C)c3ccc(OC)cc3)n2)cc1
EC50 (Plasmodium falciparum): 0.933 µM | CC50 at 72 h ([1]; read-out: CC50): > 10 µM | CC50 at 72 h ([1]; read-out: pCC50 (converted)): > 10 µM

Cc1cccc(N(C)C(=O)c2ncn(-c3ccc(C(C)C)cc3)n2)c1
pEC50 (Plasmodium falciparum): < 5.48 | EC50 (Plasmodium falciparum): > 3.31 µM | CC50 at 72 h ([1]; read-out: CC50): > 10 µM | CC50 at 72 h ([1]; read-out: pCC50 (converted)): > 10 µM

CCc1ccc(-n2cnc(C(=O)N(C)c3ccc(C)c(C)c3)n2)cc1
EC50 (Plasmodium falciparum): 2 µM | CC50 at 72 h ([1]; read-out: CC50): > 10 µM | CC50 at 72 h ([1]; read-out: pCC50 (converted)): > 10 µM

CN(C(=O)c1cncc(-c2ccc(Cl)cc2)c1)c1ccc(Cl)cc1
CC50 at 72 h ([1]; read-out: CC50): > 10 µM | CC50 at 72 h ([1]; read-out: pCC50 (converted)): > 10 µM

Cc1ccc(N(C)C(=O)c2cn(-c3ccc(C)cc3)nn2)cc1
pEC50 (Plasmodium falciparum): < 5.00 | EC50 (Plasmodium falciparum): > 10 µM | CC50 at 72 h ([1]; read-out: CC50): > 10 µM | CC50 at 72 h ([1]; read-out: pCC50 (converted)): > 10 µM

COc1ccc(N(C)C(=O)c2ncn(-c3ccc(OC)cc3)n2)cc1
pEC50 (Plasmodium falciparum): < 5.00 | EC50 (Plasmodium falciparum): > 10 µM | CC50 at 72 h ([1]; read-out: CC50): > 10 µM | CC50 at 72 h ([1]; read-out: pCC50 (converted)): > 10 µM

COc1ccc(N(C)C(=O)c2ncn(-c3ccc(C(C)C)cc3)n2)cc1
EC50 (Plasmodium falciparum): 1.62 µM | CC50 at 72 h ([1]; read-out: CC50): > 10 µM | CC50 at 72 h ([1]; read-out: pCC50 (converted)): > 10 µM

CN(C(=O)c1ncn(-c2ccc(Cl)cc2)n1)c1ccccc1
pEC50 (Plasmodium falciparum): < 4.86 | EC50 (Plasmodium falciparum): > 13.8 µM | CC50 at 72 h ([1]; read-out: CC50): > 10 µM | CC50 at 72 h ([1]; read-out: pCC50 (converted)): > 10 µM

CC(=O)c1ccc(NC(=O)c2ncn(-c3ccc(Cl)cc3)n2)cc1
pEC50 (Plasmodium falciparum): < 5.00 | EC50 (Plasmodium falciparum): > 10 µM | CC50 at 72 h ([1]; read-out: CC50): > 10 µM | CC50 at 72 h ([1]; read-out: pCC50 (converted)): > 10 µM

COc1ccc(-n2cnc(C(=O)N(C)c3ccc(Cl)cc3)n2)cc1
pEC50 (Plasmodium falciparum): < 5.41 | EC50 (Plasmodium falciparum): > 3.89 µM | CC50 at 72 h ([1]; read-out: CC50): > 10 µM | CC50 at 72 h ([1]; read-out: pCC50 (converted)): > 10 µM

Cc1ccc(-c2ncc(C(=O)N(C)c3ccc(Cl)cc3)s2)cc1
pEC50 (Plasmodium falciparum): < 5.00 | EC50 (Plasmodium falciparum): > 10 µM | CC50 at 72 h ([1]; read-out: CC50): > 10 µM | CC50 at 72 h ([1]; read-out: pCC50 (converted)): > 10 µM

COc1ccc(-n2cnc(C(=O)N(C)c3ccc(C)cc3)n2)cc1
EC50 (Plasmodium falciparum): 5.75 µM | CC50 at 72 h ([1]; read-out: CC50): > 10 µM | CC50 at 72 h ([1]; read-out: pCC50 (converted)): > 10 µM

Cc1ccc(N(C)C(=O)c2ncn(-c3ccc(C(C)C)cc3)n2)cc1
EC50 (Plasmodium falciparum): 0.741 µM | CC50 at 72 h ([1]; read-out: CC50): > 10 µM | CC50 at 72 h ([1]; read-out: pCC50 (converted)): > 10 µM

CN(C(=O)c1ncc(-c2ccc(Cl)cc2)[nH]1)c1ccc(Cl)cc1
pEC50 (Plasmodium falciparum): < 5.15 | EC50 (Plasmodium falciparum): > 7.08 µM | CC50 at 72 h ([1]; read-out: CC50): > 10 µM | CC50 at 72 h ([1]; read-out: pCC50 (converted)): > 10 µM

CN(C(=O)c1cn(-c2ccc(Cl)cc2)nn1)c1ccc(Cl)cc1
pEC50 (Plasmodium falciparum): < 5.00 | EC50 (Plasmodium falciparum): > 10 µM | CC50 at 72 h ([1]; read-out: CC50): > 10 µM | CC50 at 72 h ([1]; read-out: pCC50 (converted)): > 10 µM
